This note sets out measurements from BindingDB's records for doi:10.1016/j.bioorg.2016.05.004 (Universidade De Evora, 2016).

One test deals with Acetylcholinesterase (Electrophorus electricus, UniProt O42275). In words: EeAChE Inhibition Assay. The protocol: The inhibition assay of these compounds for AChE (electrophorus electricus) and BuChE (equine serum) were determined by the spectroscopic method described by Ellman et al. which was adapted for 96-well microplates. 25 The standard compound used was galantamine. A 75 μL of different concentrations of the sample was dissolved in buffer with a maximum of 10% DMSO, 25 μL of ATCI (15 mM), and 125 μL of DTNB 3 mM were added to the wells followed by 25 μL of 0.3 U/mL AChE. The velocity was measured by the increase in the absorbance at 405 nm during 1 min time interval at 25 C in a BIO-TEK ELX800G microplate reader (using Gen5 v.1.05 software).

Test [1] has as its target Carboxylic ester hydrolase (Equus caballus, UniProt Q9N1N9). In words: EqBuChE Inhibition Assay. The protocol: The in vitro BuChE assay was performed similarly to the method described above. A standard enzyme activity curve was drawn for each enzyme using seven different concentrations ranging from 0.1 U/mL to 1 U/mL and enzyme activity was calculated (one unit of enzyme will hydrolyze 1.0 μmol of acetylthiocholine to thiocholine and acetate per minute). Inhibitory activity was calculated from 100 subtracted by the percentage of enzyme activity.

A value given as a limit tells only on which side of the number the result lay.

Chain of Acetylcholinesterase (O42275 whole entry): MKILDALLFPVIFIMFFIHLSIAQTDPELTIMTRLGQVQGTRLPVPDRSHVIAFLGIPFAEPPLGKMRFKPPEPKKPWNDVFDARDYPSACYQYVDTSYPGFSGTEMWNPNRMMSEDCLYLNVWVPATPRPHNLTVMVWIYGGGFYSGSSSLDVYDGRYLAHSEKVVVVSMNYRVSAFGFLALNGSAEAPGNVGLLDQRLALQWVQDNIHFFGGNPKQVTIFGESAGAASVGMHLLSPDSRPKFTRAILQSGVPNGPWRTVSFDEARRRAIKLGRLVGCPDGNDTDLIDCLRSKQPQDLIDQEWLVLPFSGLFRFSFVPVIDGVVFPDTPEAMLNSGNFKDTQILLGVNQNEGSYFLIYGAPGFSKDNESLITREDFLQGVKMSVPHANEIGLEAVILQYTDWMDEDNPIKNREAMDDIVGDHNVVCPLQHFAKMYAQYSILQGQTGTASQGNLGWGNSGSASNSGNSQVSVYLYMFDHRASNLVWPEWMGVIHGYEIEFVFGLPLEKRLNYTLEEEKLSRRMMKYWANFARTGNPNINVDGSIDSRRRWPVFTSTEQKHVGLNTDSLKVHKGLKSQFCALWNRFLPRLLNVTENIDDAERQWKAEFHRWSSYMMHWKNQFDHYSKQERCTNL
Chain of Carboxylic ester hydrolase (Q9N1N9 whole entry): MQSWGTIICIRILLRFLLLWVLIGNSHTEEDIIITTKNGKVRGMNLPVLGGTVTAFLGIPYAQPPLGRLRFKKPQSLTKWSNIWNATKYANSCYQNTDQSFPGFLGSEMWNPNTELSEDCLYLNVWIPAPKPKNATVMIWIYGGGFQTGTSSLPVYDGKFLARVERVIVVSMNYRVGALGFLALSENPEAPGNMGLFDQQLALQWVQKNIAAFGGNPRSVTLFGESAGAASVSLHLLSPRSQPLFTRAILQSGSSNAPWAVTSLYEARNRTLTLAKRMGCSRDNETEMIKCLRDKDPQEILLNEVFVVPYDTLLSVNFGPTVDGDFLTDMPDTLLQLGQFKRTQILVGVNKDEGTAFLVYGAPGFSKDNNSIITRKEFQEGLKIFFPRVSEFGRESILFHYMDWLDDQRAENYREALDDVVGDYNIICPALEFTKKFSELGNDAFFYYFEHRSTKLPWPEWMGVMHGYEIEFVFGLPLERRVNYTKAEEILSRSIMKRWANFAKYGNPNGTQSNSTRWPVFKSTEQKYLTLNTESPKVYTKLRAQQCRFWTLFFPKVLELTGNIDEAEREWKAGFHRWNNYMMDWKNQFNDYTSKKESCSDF

The IC50 is the concentration that inhibits the measured activity by half. A low value points to greater potency. With `COC1CNC(=O)c2ccccc21` (stereo unspecified) [Isoquinolin-1(2H)-ones, 1f], the IC50 against Acetylcholinesterase came out at 89.5 µM; in test [1], 154 µM. `Cc1ccc2c(n1)C(O)CCNC2=O` (stereo unspecified) [Isoquinolin-1(2H)-ones, 4b]: the IC50 (against Acetylcholinesterase; in test [1]) was above 1500 µM in each case. For `COc1ccc2c(c1)C(=O)NCC2O` (stereo unspecified) [Isoquinolin-1(2H)-ones, 1e], the IC50 was 311 µM on Acetylcholinesterase and above 1500 µM in test [1]. The corresponding values for `Cc1ccc2c(c1)C(=O)NCC2O` (stereo unspecified) [Isoquinolin-1(2H)-ones, 1b] are above 1500 µM and 352 µM. In the case of `O=C1NCCC(O)c2ncccc21` (stereo unspecified) [Isoquinolin-1(2H)-ones, 4a], the IC50 against Acetylcholinesterase was 550 µM; in test [1], above 1500 µM. The corresponding values for `O=C1NCC(O)c2ccccc21` (stereo unspecified) [Isoquinolin-1(2H)-ones, 1a] are 136 µM and 807 µM.

For the compound `O=C1NCC(O)c2ccsc21` (stereo unspecified) [Isoquinolin-1(2H)-ones, 5], the values for the IC50 (at Acetylcholinesterase; in test [1]) were 1370 µM and above 1500 µM, respectively. Regarding `O=C1NCC(O)c2cc(Cl)ccc21` (stereo unspecified) [Isoquinolin-1(2H)-ones, 1d], the figures for the IC50 (against Acetylcholinesterase; in test [1]) were above 1500 µM and 226 µM, respectively. For the compound `Cc1ccc2c(c1)C(=O)NCCC2O` (stereo unspecified) [Isoquinolin-1(2H)-ones, 2b], the IC50 is 536 µM against Acetylcholinesterase and 108 µM in test [1]. `COc1ccc2c3c1O[C@H]1C[C@@H](O)C=C[C@@]31CCN(C)C2` [galantamine]: 61.9 µM corresponded to half-maximal inhibition in test [1] (IC50). On to `Cc1ccc2c(c1)C(O)CNC2=O` (stereo unspecified) [Isoquinolin-1(2H)-ones, 1c], for which the IC50 (on Acetylcholinesterase; in test [1]) was above 1500 µM each time.
